Reference: ChEMBL document CHEMBL6083204, “Synthesis of a celastrol derivative as a cancer stem cell inhibitor through regulation of the STAT3 pathway for treatment of ovarian cancer” (RSC Med Chem, 2024)
Active and inactive are the calls of the source. The calls are words filed in the database; no cut-off is given here.

Key:
[1] = target: Signal transducer and activator of transcription 3 (Homo sapiens) (UniProt P40763); test: Inhibition of STAT3 in human SK-OV-3 cells assessed as downregulation of STAT3 phosphorylation at Ser727 residue incubated for 24 hrs by Western blotting analysis; format: cell-based
[2] = test system: A2780; test: Induction of apoptosis in human A2780 cells assessed as necrotic cells at 0.4 uM incubated for 24 hrs by Annexin V-FITC/7-AAD staining based flow cytometry (reference value: 1 %); format: functional
[3] = test system: SK-OV-3; test: Antiproliferative activity against human SK-OV-3 cells assessed as decrease in CD44 positive CD24 negative cells expression at 0.4 uM incubated for 24 hrs by FITC staining based flow cytometry (reference value: 85.6 %); format: functional; parameters: scale not given: the % may be the effect or the level left
[4] = Selectivity index, ratio of IC50 for cytotoxicity against human IOSE80 cells to IC50 for cytotoxicity against human SK-OV-3 cells
[5] = test system: A2780; test: Antiproliferative activity against human A2780 cells assessed as decrease in CD44 positive CD24 negative cells expression at 0.2 uM incubated for 24 hrs by FITC staining based flow cytometry (reference value: 28.13 %); format: functional; parameters: scale not given: the % may be the effect or the level left
[6] = test system: SK-OV-3; test: Antitumor activity against human SK-OV-3 cells xenografted in BALB/c mouse assessed as reduction in tumor weight at 5 mg/kg,ip administrated for 21 consecutive days; format: functional, organism-based
[7] = test system: A2780; test: Induction of apoptosis in human A2780 cells assessed as late apoptotic cells at 0.8 uM incubated for 24 hrs by Annexin V-FITC/7-AAD staining based flow cytometry (reference value: 2.1 %); format: functional
[8] = test system: SK-OV-3; test: Induction of apoptosis in human SK-OV-3 cells assessed as late apoptotic cells at 0.8 uM incubated for 24 hrs by Annexin V-FITC/7-AAD staining based flow cytometry (reference value: 3.7 %); format: functional
[9] = test system: SK-OV-3; test: Induction of cell cycle arrest in human SK-OV-3 cells assessed as accumulation of cells at G0/G1 phase at 0.4 uM incubated for 24 hrs by BrdU staining based flow cytometry (reference value: 59.8 %); format: functional
[10] = test system: A2780; test: Induction of apoptosis in human A2780 cells assessed as early apoptotic cells at 0.4 uM incubated for 24 hrs by Annexin V-FITC/7-AAD staining based flow cytometry (reference value: 1.9 %); format: functional
[11] = target: Signal transducer and activator of transcription 3 (Homo sapiens) (UniProt P40763); test: Inhibition of STAT3 in human SK-OV-3 cells assessed as downregulation of Mcl-1 expression at 0.1 to 0.4 uM incubated for 24 hrs by Western blotting analysis; format: cell-based; settings: dose 0.1-0.4 µM
[12] = Toxicity in BALB/c mouse xenografted with human SK-OV-3 cells assessed as change in body weight at 2 to 5 mg/kg,ip administrated for 21 consecutive days; format: organism-based; settings: in vivo, dose 2-5 mg/kg
[13] = target: Tyrosine-protein kinase JAK2 (Homo sapiens) (UniProt O60674); test: Inhibition of JAK2 in human SK-OV-3 cells assessed as downregulation of JAK2 phosphorylation at 0.1 to 0.4 uM incubated for 24 hrs by Western blotting analysis; format: cell-based; settings: dose 0.1-0.4 µM
[14] = test system: A2780; test: Induction of ROS production in human A2780 cells assessed as increase in fluorescence intensity incubated for 24 hrs by DCFH-DA staining based flow cytometry; format: functional, cell-based
[15] = test system: A2780; test: Induction of apoptosis in human A2780 cells assessed as increase in caspase-8 activity at 0.4 uM incubated for 24 hrs by flow cytometry (reference value: 1.2 %); format: functional
[16] = target: Tyrosine-protein kinase JAK1 (Homo sapiens) (UniProt P23458); test: Inhibition of JAK1 in human SK-OV-3 cells assessed as downregulation of JAK1 phosphorylation at 0.1 to 0.4 uM incubated for 24 hrs by Western blotting analysis; format: cell-based; settings: dose 0.1-0.4 µM
[17] = target: Signal transducer and activator of transcription 3 (Homo sapiens) (UniProt P40763); test: Inhibition of STAT3 in human SK-OV-3 cells assessed as downregulation of STAT3 expression in nuclei at 0.2 uM incubated for 24 hrs by Hoechst33342 staining based immunofluorescence assay; format: cell-based
[18] = test system: SK-OV-3; test: Induction of cell cycle arrest in human SK-OV-3 cells assessed as reduction of Cyclin D1 expression at 0.2 uM incubated for 24 hrs by flow cytometry (reference value: 93.8 %); format: functional; parameters: scale not given: the % may be the effect or the level left
[19] = test system: SK-OV-3; test: Induction of cell cycle arrest in human SK-OV-3 cells assessed as reduction of CDK2 expression at 0.4 uM incubated for 24 hrs by flow cytometry (reference value: 94.4 %); format: functional; parameters: scale not given: the % may be the effect or the level left
[20] = test system: SK-OV-3; test: Induction of cell cycle arrest in human SK-OV-3 cells assessed as reduction of CDK2 expression at 0.8 uM incubated for 24 hrs by flow cytometry (reference value: 94.4 %); format: functional; parameters: scale not given: the % may be the effect or the level left
[21] = target: Tyrosine-protein kinase JAK2 (Homo sapiens) (UniProt O60674); test: Inhibition of JAK2 in human SK-OV-3 cells assessed as downregulation of JAK2 expression at 0.1 to 0.4 uM incubated for 24 hrs by Western blotting analysis; format: cell-based; settings: dose 0.1-0.4 µM
[22] = test system: A2780; test: Induction of cell cycle arrest in human A2780 cells assessed as accumulation of cells at G0/G1 phase at 0.8 uM incubated for 24 hrs by BrdU staining based flow cytometry (reference value: 42.4 %); format: functional
[23] = test system: A2780; test: Induction of cell cycle arrest in human A2780 cells assessed as reduction of CDK4 expression at 0.8 uM incubated for 24 hrs by flow cytometry (reference value: 93.6 %); format: functional; parameters: scale not given: the % may be the effect or the level left
[24] = test system: SK-OV-3; test: Induction of cell cycle arrest in human SK-OV-3 cells assessed as reduction of Cyclin D1 expression at 0.4 uM incubated for 24 hrs by flow cytometry (reference value: 93.8 %); format: functional; parameters: scale not given: the % may be the effect or the level left
[25] = test system: A2780; test: Induction of cell cycle arrest in human A2780 cells assessed as reduction of CDK2 expression at 0.2 uM incubated for 24 hrs by flow cytometry (reference value: 92.5 %); format: functional; parameters: scale not given: the % may be the effect or the level left
[26] = test system: A2780; test: Induction of cell cycle arrest in human A2780 cells assessed as accumulation of cells at S phase at 0.4 uM incubated for 24 hrs by BrdU staining based flow cytometry (reference value: 51.6 %); format: functional
[27] = test system: SK-OV-3; test: Induction of apoptosis in human SK-OV-3 cells assessed as early apoptotic cells at 0.8 uM incubated for 24 hrs by Annexin V-FITC/7-AAD staining based flow cytometry (reference value: 1.6 %); format: functional
[28] = test system: A2780; test: Induction of apoptosis in human A2780 cells assessed as increase in caspase-8 activity at 0.8 uM incubated for 24 hrs by flow cytometry (reference value: 1.2 %); format: functional
[29] = test system: SK-OV-3; test: Induction of apoptosis in human SK-OV-3 cells assessed as increase in caspase-3 activity at 0.2 uM incubated for 24 hrs by flow cytometry (reference value: 4.6 %); format: functional
[30] = target: Signal transducer and activator of transcription 3 (Homo sapiens) (UniProt P40763); test: Inhibition of STAT3 in human SK-OV-3 cells assessed as downregulation of STAT3 phosphorylation at Tyr705 residue incubated for 24 hrs by Western blotting analysis; format: cell-based
[31] = test system: A2780; test: Induction of apoptosis in human A2780 cells assessed as increase in caspase-8 activity at 0.2 uM incubated for 24 hrs by flow cytometry (reference value: 1.2 %); format: functional
[32] = test system: A2780; test: Induction of cell cycle arrest in human A2780 cells assessed as reduction of Cyclin D1 expression at 0.4 uM incubated for 24 hrs by flow cytometry (reference value: 92.5 %); format: functional; parameters: scale not given: the % may be the effect or the level left
[33] = test system: A2780; test: Induction of cell cycle arrest in human A2780 cells assessed as reduction of Cyclin D1 expression at 0.2 uM incubated for 24 hrs by flow cytometry (reference value: 92.5 %); format: functional; parameters: scale not given: the % may be the effect or the level left

Sequence of Signal transducer and activator of transcription 3 (Homo sapiens) (P40763 whole entry): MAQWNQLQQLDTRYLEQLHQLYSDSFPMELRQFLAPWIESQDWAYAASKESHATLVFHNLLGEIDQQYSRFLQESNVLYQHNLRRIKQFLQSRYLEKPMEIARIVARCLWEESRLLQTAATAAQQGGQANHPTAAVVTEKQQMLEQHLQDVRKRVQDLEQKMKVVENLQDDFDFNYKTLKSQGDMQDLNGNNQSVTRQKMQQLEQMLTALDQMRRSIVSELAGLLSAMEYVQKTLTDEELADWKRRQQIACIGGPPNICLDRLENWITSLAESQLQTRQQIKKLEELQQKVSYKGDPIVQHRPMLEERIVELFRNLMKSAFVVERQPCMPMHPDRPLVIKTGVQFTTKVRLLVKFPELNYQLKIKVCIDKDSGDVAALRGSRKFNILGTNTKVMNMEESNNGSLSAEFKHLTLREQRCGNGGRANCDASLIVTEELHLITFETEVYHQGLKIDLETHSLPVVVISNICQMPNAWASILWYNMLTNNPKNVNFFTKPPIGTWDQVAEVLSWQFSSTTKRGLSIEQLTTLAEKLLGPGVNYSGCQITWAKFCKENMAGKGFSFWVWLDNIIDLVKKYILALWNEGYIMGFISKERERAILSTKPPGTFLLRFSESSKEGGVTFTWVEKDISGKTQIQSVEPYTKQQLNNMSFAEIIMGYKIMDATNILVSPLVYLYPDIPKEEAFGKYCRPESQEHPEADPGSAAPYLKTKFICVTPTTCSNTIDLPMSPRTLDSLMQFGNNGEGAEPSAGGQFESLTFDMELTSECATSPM
Sequence of Tyrosine-protein kinase JAK2 (Homo sapiens) (O60674 whole entry): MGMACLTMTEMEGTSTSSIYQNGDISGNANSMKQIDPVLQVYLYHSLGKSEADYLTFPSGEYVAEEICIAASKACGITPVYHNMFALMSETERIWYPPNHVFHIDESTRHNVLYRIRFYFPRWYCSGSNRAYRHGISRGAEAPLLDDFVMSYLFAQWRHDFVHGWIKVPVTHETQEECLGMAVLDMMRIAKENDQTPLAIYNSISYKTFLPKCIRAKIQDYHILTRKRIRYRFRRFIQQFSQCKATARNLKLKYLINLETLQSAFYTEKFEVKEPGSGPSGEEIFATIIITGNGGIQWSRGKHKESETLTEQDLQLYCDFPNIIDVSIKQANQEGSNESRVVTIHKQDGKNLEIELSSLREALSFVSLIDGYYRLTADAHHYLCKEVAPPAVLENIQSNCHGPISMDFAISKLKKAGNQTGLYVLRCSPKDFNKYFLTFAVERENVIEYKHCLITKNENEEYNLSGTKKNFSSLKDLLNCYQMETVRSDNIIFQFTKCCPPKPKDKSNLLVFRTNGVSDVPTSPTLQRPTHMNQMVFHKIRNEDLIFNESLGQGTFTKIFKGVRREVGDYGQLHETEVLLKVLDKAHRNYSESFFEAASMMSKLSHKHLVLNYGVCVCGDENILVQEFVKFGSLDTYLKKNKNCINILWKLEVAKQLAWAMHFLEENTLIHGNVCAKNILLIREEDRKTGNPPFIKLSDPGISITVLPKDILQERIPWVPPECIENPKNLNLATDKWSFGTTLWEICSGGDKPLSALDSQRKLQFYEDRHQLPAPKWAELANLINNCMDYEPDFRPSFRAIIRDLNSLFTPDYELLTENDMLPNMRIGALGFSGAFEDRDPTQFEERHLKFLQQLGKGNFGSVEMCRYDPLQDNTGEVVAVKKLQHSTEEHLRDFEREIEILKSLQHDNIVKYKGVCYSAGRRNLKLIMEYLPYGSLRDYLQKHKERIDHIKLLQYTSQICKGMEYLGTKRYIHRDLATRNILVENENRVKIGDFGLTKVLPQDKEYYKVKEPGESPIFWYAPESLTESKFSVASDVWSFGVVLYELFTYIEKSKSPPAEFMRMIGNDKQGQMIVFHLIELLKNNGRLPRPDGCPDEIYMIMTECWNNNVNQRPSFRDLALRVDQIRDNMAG
Sequence of Tyrosine-protein kinase JAK1 (Homo sapiens) (P23458 whole entry): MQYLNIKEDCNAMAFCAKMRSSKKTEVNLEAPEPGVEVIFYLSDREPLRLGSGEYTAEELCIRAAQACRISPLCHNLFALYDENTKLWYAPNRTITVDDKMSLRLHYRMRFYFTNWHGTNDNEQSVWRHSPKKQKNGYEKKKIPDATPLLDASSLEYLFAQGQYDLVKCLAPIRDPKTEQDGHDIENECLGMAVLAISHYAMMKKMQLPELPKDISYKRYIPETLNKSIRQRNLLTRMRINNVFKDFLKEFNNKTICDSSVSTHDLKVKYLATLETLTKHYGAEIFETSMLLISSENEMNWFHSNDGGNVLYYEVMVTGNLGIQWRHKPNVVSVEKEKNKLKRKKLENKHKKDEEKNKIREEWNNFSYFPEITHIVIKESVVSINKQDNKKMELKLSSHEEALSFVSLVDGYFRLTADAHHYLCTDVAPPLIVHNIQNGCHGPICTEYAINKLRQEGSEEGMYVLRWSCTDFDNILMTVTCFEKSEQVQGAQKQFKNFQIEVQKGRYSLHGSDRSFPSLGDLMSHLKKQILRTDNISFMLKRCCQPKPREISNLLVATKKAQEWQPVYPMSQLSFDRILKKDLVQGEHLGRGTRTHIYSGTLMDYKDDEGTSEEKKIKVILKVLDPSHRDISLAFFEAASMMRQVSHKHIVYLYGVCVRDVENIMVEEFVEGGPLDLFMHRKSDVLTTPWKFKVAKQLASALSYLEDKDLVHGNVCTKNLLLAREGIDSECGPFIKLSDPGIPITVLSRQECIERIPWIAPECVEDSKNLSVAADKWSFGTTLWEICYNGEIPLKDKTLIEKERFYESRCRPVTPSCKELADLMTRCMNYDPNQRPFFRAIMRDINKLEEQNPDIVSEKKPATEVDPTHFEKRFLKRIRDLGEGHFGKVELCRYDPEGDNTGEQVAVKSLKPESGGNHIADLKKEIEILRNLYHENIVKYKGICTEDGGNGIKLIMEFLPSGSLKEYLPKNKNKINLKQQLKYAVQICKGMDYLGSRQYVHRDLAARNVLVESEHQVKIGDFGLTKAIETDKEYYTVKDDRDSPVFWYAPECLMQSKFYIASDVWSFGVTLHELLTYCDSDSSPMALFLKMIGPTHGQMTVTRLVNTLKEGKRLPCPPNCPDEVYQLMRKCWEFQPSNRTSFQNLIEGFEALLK

inhibition [1]: Dose-dependent-effect | inhibition [11]: Active | inhibition [13]: Active | inhibition [16]: Active | inhibition [17]: Active | inhibition [21]: Active | inhibition [30]: Dose-dependent-effect
SMILES: CC1=C(O)C(=O)C=C2C1=CC=C1[C@@]2(C)CC[C@@]2(C)[C@@H]3C[C@](C)(C(=O)N4CCNCC4)CC[C@]3(C)CC[C@]12C
Activity [2]: 2.3% | Activity [3]: 51.67% | Ratio IC50 [4]: 4.81 | Activity [5]: 17.97% | Activity [6]: Active; Showed Moderate Reduction Activity | Activity [7]: 66.7% | Activity [8]: 17.4% | Activity [9]: 49.2% | Activity [10]: 7.4% | Activity [12]: Non-toxic | Activity [14]: Dose-dependent-effect | Activity [15]: 9.8% | Activity [18]: 90.3% | Activity [19]: 80.7% | Activity [20]: 57.5% | Activity [22]: 70.5% | Activity [23]: 18.7% | Activity [24]: 68.2% | Activity [25]: 89.6% | Activity [26]: 25.2% | Activity [27]: 33.2% | Activity [28]: 12% | Activity [29]: 6.8% | Activity [31]: 1% | Activity [32]: 67.7% | Activity [33]: 85.2%
